Experiment [1] is described as follows: Binding affinity to 5HT1 receptor.
In experiment [2] the target is Serotonin 2 (5-HT2) receptor (Homo sapiens, UniProt P41595+P28223+P28335). In words: Binding affinity to 5HT2 receptor. In kind it is protein assay.
Experiment [3] addresses D(1A) dopamine receptor (Homo sapiens, UniProt P21728). Briefly: Binding affinity to dopamine receptor D1.
The target in experiment [4] is T1, Adrenergic receptor alpha-2 (Homo sapiens, UniProt P08913+P18825+P18089).
T1 sequence (P08913 whole entry): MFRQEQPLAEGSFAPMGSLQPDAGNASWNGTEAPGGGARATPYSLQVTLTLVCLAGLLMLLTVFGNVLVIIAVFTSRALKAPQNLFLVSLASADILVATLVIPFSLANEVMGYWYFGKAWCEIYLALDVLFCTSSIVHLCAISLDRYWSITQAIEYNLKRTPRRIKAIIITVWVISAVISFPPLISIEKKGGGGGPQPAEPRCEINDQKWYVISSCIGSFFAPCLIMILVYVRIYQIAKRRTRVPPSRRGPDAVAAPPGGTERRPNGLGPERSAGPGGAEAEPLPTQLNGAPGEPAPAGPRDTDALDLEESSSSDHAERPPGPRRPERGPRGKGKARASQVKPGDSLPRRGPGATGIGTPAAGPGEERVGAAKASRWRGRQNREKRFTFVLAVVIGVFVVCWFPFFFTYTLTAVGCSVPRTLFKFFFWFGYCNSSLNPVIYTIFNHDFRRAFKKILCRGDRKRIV
T1 sequence (P18825 whole entry): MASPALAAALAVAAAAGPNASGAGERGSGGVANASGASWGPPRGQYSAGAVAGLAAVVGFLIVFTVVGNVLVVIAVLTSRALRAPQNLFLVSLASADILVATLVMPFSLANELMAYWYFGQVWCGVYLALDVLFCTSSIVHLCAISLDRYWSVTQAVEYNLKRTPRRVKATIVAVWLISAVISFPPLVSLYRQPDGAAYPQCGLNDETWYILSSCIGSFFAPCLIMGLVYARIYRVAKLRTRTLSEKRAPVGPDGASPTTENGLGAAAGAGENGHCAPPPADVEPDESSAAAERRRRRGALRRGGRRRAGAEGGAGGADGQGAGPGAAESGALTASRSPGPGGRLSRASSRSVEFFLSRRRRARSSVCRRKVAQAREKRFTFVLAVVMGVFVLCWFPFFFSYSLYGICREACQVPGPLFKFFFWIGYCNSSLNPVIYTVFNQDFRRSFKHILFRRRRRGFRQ
T1 sequence (P18089 whole entry): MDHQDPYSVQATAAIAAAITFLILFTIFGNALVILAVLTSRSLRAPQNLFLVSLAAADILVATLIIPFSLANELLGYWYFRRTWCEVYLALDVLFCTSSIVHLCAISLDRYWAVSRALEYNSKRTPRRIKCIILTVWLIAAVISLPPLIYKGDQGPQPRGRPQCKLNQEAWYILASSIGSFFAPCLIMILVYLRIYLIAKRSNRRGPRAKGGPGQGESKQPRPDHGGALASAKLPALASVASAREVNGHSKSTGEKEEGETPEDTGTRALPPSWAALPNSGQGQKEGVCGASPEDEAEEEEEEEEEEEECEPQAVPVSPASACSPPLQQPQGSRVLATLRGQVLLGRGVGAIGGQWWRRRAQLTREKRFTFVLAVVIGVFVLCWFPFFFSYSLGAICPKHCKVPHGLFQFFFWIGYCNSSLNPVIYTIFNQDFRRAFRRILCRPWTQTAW
In words: Binding affinity to adrenergic alpha-2 receptor. The format is protein assay.

Experiment [5] deals with Beta-1 adrenergic receptor (Homo sapiens, UniProt P08588). Briefly: Binding affinity to adrenergic beta-1 receptor.
Chain of Beta-1 adrenergic receptor (P08588 whole entry): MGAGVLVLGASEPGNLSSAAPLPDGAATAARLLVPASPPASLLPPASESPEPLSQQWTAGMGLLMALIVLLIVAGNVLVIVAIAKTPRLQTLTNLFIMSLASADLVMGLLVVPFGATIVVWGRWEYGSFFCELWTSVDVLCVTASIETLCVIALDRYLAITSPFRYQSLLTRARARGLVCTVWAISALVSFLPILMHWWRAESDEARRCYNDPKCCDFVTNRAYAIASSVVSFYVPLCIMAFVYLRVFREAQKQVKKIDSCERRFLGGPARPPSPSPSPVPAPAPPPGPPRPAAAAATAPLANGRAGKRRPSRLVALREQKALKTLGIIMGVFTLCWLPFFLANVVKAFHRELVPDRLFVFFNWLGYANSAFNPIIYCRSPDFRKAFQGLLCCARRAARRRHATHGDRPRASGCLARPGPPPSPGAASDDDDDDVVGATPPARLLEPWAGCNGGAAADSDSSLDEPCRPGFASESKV
The target of experiment [6] is 5-hydroxytryptamine receptor 4 (Cavia porcellus, UniProt O70528). Briefly: Displacement of [3H]GR-113808 from 5HT4 receptor in guinea pig striatum. Background: Loss of bound radioactivity is the signal in a displacement assay; it reports binding, not function.
Chain of 5-hydroxytryptamine receptor 4 (O70528 whole entry): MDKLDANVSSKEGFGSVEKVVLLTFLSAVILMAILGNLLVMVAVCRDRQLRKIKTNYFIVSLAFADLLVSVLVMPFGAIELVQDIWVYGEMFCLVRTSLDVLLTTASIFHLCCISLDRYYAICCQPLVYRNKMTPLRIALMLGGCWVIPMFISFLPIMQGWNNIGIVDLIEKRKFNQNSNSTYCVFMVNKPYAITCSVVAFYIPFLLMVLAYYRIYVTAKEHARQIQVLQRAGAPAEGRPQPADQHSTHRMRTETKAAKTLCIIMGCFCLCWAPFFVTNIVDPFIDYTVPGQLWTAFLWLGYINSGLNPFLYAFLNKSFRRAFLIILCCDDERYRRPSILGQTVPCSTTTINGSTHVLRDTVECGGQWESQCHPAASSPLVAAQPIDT

The values that follow come from ChEMBL document CHEMBL1149398, “Pyrrolizidine esters and amides as 5-HT4 receptor agonists and antagonists” (J Med Chem, 2006).

Molecules are shown by their SMILES.

Chain of D(1A) dopamine receptor (P21728 whole entry): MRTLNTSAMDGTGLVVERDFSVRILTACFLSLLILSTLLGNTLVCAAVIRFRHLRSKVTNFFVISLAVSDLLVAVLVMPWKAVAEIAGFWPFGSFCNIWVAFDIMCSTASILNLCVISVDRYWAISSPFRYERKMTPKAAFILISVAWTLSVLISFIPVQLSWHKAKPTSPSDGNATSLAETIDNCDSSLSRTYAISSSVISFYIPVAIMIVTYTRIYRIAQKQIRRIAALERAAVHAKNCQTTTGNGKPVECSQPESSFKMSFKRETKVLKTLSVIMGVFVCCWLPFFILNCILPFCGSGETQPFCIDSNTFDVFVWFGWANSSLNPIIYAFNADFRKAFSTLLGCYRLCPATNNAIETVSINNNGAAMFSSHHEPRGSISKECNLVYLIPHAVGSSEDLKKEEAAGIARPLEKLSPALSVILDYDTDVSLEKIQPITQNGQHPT

On to `COc1cc(N)c(Cl)cc1C(=O)NC[C@@H]1CCN2CCC[C@@H]12`, for which the IC50 in experiment [1], in experiment [2], in experiment [3], in experiment [4] and in experiment [5] was above 10 µM in each case. The same molecule had a Ki in experiment [6] of 0.0052 µM.

In the case of `COc1cc(N)c(Cl)cc1C(=O)N[C@@H]1C2CC3CN(C2)CC31` (stereo partly specified), the IC50 in experiment [1], in experiment [2], in experiment [3], in experiment [4] and in experiment [5] was above 10 µM throughout. Further, the Ki in experiment [6] amounted to 0.029 µM.

Consider `O=C(NC[C@@H]1CCN2CCC[C@@H]12)c1cc(Cl)cn2ccnc12`, for which the IC50 in experiment [1], in experiment [2], in experiment [3], in experiment [4] and in experiment [5] was above 10 µM each time. For the same molecule, in experiment [6], the Ki worked out at 0.0014 µM.

With `O=C(OC[C@@H]1CCN2CCC[C@@H]12)c1[nH]nc2ccccc12` (single isomer, unassigned), the IC50 in experiment [1], in experiment [2], in experiment [3], in experiment [4] and in experiment [5] was above 10 µM in each case. For the same molecule, affinity in experiment [6] was put at a Ki of 0.0008 µM.

In the case of `O=C(OC[C@@H]1CCN2CCC[C@@H]12)c1c[nH]c2ccccc12`, the IC50 in experiment [1], in experiment [2], in experiment [3], in experiment [4] and in experiment [5] was above 10 µM throughout. In experiment [6], the Ki came to 0.000183 µM.

Consider `Cn1nc(C(=O)OC[C@@H]2CCN3CCC[C@@H]23)c2ccccc21` (single isomer, unassigned), for which the IC50 in experiment [1], in experiment [2], in experiment [3], in experiment [4] and in experiment [5] was above 10 µM each time. This molecule came in with a Ki in experiment [6] of 0.0004 µM.

As a reminder, the IC50 is the midpoint of a concentration-inhibition curve. Low readings indicate greater potency, high ones weaker potency. Broadly, the Ki is a dissociation constant, usually derived from enzyme kinetics or from competition with a known ligand. A low value points to higher affinity.
